In ChEMBL document CHEMBL5046291, “Evodiamine-Inspired Topoisomerase-Histone Deacetylase Dual Inhibitors: Novel Orally Active Antitumor Agents for Leukemia Therapy” (J Med Chem, 2022):
Activity calls are given as the source filed them. No cut-off for these calls is given here.

Columns and labels:
[1] = target: T1, DNA topoisomerase 1 (Homo sapiens) (UniProt P11387); test: Inhibition of recombinant Top1 (unknown origin) assessed as inhibition of relaxation of supercoiled pBR322 plasmid DNA at 100 uM incubated for 15 mins by ethidium bromide staining based agarose gel electrophoresis analysis
T1 sequence (whole entry): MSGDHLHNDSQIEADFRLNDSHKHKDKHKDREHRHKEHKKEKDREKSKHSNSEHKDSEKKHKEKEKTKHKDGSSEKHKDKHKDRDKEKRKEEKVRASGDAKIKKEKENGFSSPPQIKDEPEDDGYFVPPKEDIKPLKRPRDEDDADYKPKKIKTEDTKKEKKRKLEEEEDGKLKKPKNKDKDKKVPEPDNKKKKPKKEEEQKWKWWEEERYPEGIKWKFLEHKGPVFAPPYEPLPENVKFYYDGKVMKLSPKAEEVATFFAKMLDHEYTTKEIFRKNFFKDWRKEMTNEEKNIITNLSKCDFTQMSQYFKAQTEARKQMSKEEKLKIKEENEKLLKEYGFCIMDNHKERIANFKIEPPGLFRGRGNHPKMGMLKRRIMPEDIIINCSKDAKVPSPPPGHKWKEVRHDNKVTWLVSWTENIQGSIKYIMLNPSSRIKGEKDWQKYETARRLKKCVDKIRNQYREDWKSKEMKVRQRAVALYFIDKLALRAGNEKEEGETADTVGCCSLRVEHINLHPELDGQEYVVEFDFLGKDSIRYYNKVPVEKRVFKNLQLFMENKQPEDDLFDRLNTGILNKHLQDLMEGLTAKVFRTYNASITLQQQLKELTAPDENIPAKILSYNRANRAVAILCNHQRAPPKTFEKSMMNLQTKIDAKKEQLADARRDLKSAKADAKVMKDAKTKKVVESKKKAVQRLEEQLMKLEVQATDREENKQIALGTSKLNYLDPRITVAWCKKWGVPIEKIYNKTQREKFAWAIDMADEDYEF

[2] = target: DNA topoisomerase 2-alpha (Homo sapiens) (UniProt P11388); test: Inhibition of recombinant Top2 (unknown origin) assessed as inhibition of relaxation of supercoiled pBR322 plasmid DNA at 50 uM incubated for 15 mins by ethidium bromide staining based agarose gel electrophoresis analysis
Histone deacetylase 1 [3] = target: T2, Histone deacetylase 1 (Homo sapiens, UniProt Q13547); test: Inhibition of full-length recombinant human HDAC1 expressed in Baculovirus expression system using Ac-Leu-Gly-Lys(Ac)-AMC as substrate preincubated for 5 mins followed by substrate addition and further incubated for 30 mins by fluorescence based microtiter plate reader assay
MCF7 = test: Antiproliferative activity against human MCF7 cells assessed as cell growth inhibition incubated for 8 hrs by CCK8 assay; assay type: functional, cell-based; conditions: MCF7, 8 h
A549 = test: Antiproliferative activity against human A549 cells assessed as cell growth inhibition incubated for 8 hrs by CCK8 assay; assay type: functional, cell-based; conditions: A549, 8 h
HCT-116 = test: Antiproliferative activity against human HCT-116 cells assessed as cell growth inhibition incubated for 8 hrs by CCK8 assay; assay type: functional, cell-based; conditions: HCT-116, 8 h
HepG2 = test: Antiproliferative activity against human HepG2 cells assessed as cell growth inhibition incubated for 8 hrs by CCK8 assay; assay type: functional, cell-based; conditions: HepG2, 8 h
K562 = test: Antiproliferative activity against human K562 cells assessed as cell growth inhibition incubated for 8 hrs by CCK8 assay; assay type: functional, cell-based; conditions: K562, 8 h
HEL = test: Antiproliferative activity against HEL cells assessed as cell growth inhibition incubated for 8 hrs by CCK8 assay; assay type: functional, cell-based; conditions: Homo sapiens
[4] = target: T1, DNA topoisomerase 1 (Homo sapiens); test: Inhibition of recombinant Top1 (unknown origin) assessed as inhibition of relaxation of supercoiled pBR322 plasmid DNA at 50 uM incubated for 15 mins by ethidium bromide staining based agarose gel electrophoresis analysis
[5] = target: DNA topoisomerase 2-alpha (Homo sapiens) (UniProt P11388); test: Inhibition of recombinant Top2 (unknown origin) assessed as inhibition of relaxation of supercoiled pBR322 plasmid DNA at 100 uM incubated for 15 mins by ethidium bromide staining based agarose gel electrophoresis analysis
Histone deacetylase 2 [6] = target: T3, Histone deacetylase 2 (Homo sapiens, UniProt Q92769); test: Inhibition of recombinant full length C-terminal GST tagged human HDAC2 expressed in baculovirus infected Sf9 insect cells using Ac-Leu-Gly-Lys(Ac)-AMC as substrate preincubated for 5 mins followed by substrate addition and further incubated for 30 mins by fluorescence based microtiter plate reader assay
Histone deacetylase 3 = Histone deacetylase 3 (Homo sapiens, UniProt O15379); test: Inhibition of recombinant His-tagged human HDAC3 expressed in baculovirus infected insect cells using Ac-Leu-Gly-Lys(Ac)-AMC as substrate preincubated for 5 mins followed by substrate addition and further incubated for 30 mins by fluorescence based microtiter plate reader assay
[7] = target: T4, Protein deacetylase HDAC6 (Homo sapiens, UniProt Q9UBN7); test: Inhibition of full-length recombinant N-terminal GST-tagged human HDAC6 expressed in baculovirus infected Sf9 cells using Ac-Leu-Gly-Lys(Ac)-AMC as substrate preincubated for 5 mins followed by substrate addition and further incubated for 30 mins by fluorescence based microtiter plate reader assay
T4 sequence (Q9UBN7 whole entry): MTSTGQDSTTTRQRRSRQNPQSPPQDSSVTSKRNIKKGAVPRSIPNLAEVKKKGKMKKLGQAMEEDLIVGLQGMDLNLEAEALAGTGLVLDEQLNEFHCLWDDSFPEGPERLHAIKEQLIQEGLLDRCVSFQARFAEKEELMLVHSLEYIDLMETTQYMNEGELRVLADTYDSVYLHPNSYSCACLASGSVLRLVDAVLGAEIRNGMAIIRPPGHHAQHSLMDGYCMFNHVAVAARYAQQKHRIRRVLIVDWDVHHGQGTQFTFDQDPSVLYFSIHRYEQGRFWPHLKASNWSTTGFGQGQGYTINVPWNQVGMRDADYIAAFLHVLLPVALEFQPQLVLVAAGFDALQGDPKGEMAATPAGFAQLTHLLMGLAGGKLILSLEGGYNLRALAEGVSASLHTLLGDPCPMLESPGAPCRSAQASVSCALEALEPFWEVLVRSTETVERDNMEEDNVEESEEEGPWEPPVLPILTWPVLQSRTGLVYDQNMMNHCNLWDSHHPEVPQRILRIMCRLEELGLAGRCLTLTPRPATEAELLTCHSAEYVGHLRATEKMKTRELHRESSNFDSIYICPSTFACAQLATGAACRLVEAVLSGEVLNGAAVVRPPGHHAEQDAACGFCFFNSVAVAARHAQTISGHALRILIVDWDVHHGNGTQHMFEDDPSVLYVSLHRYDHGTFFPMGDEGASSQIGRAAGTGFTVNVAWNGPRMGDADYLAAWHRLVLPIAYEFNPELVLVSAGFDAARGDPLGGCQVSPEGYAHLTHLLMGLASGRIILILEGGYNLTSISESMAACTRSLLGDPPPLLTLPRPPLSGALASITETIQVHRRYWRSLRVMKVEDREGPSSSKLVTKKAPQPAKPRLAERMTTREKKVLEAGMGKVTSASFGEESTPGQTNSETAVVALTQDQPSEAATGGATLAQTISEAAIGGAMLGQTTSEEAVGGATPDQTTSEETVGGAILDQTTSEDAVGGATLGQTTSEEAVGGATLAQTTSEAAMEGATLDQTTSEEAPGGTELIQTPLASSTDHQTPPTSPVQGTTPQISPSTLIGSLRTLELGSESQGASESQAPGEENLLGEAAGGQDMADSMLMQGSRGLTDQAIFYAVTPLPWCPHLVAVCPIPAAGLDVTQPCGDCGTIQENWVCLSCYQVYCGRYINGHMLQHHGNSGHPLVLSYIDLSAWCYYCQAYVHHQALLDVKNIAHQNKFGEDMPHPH

Histone deacetylase 8 = target: T5, Histone deacetylase 8 (Homo sapiens, UniProt Q9BY41); test: Inhibition of full-length recombinant C-terminal His-tagged human HDAC8 expressed in baculovirus infected Sf9 insect cells using Ac-Leu-Gly-Lys(Tfa)-AMC as substrate preincubated for 5 mins followed by substrate addition and further incubated for 30 mins by fluorescence based microtiter plate reader assay
T5 sequence (Q9BY41 whole entry): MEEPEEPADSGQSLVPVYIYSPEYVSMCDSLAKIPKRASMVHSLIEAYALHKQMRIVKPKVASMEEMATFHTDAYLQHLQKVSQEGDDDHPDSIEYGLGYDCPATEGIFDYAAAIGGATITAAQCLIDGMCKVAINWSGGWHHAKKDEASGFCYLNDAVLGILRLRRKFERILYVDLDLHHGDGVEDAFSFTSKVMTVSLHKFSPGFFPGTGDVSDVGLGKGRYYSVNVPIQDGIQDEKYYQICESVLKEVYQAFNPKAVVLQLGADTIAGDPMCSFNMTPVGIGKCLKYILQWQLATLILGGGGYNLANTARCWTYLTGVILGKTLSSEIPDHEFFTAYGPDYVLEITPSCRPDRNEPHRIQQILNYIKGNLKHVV

Histone deacetylase 1 [8] = target: T2, Histone deacetylase 1; test: Inhibition of HDAC1 in HEL cells assessed as increase in acetyl-H3 levels at 20 to 100 nM incubated for 24 hrs by western blot analysis; assay type: cell-based; conditions: dose 20-100 nM
Histone deacetylase 2 [9] = target: T3, Histone deacetylase 2; test: Inhibition of HDAC2 in HEL cells assessed as increase in acetyl-H4 levels at 20 to 100 nM incubated for 24 hrs by western blot analysis; assay type: cell-based; conditions: dose 20-100 nM

Sequence of DNA topoisomerase 2-alpha (Homo sapiens) (P11388 whole entry): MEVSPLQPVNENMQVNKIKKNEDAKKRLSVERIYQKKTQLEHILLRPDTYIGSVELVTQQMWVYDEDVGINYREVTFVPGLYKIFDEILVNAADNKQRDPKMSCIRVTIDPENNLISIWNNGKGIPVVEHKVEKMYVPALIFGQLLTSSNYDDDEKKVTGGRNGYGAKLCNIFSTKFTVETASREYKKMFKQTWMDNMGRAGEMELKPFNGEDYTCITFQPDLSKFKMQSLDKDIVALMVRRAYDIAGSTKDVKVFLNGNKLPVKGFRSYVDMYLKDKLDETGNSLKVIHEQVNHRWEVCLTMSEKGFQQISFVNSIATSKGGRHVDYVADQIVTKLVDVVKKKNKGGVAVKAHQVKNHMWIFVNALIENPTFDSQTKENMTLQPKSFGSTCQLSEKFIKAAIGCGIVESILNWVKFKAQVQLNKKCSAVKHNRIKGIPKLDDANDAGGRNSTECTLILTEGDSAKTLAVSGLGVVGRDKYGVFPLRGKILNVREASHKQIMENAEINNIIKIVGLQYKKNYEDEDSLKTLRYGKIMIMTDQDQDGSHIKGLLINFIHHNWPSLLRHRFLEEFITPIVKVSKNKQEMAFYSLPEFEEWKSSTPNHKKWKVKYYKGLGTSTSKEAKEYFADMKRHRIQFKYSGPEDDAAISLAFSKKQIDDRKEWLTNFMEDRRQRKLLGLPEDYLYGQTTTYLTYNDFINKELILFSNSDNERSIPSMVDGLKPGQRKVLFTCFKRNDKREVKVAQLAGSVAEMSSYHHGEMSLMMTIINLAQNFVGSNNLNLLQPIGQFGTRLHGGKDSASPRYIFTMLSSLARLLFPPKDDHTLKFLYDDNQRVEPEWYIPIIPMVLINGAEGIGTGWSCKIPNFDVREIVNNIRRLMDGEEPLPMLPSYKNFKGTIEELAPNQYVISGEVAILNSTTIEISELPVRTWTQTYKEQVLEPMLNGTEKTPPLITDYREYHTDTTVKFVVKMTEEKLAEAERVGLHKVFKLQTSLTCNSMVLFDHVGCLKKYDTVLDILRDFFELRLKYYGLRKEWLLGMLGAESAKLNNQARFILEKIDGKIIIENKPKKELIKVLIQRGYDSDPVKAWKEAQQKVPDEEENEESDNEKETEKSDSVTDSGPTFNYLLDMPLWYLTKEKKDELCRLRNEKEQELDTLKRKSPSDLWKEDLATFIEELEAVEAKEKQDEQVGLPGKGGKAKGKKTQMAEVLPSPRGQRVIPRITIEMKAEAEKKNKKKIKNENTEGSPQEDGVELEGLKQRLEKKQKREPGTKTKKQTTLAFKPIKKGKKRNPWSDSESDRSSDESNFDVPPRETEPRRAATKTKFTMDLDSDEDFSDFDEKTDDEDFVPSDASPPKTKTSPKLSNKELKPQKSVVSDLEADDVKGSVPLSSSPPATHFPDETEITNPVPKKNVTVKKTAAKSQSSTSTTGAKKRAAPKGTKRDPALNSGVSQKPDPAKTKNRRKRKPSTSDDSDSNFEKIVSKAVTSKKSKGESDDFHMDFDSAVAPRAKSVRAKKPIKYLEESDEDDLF
T3 sequence (Q92769 whole entry): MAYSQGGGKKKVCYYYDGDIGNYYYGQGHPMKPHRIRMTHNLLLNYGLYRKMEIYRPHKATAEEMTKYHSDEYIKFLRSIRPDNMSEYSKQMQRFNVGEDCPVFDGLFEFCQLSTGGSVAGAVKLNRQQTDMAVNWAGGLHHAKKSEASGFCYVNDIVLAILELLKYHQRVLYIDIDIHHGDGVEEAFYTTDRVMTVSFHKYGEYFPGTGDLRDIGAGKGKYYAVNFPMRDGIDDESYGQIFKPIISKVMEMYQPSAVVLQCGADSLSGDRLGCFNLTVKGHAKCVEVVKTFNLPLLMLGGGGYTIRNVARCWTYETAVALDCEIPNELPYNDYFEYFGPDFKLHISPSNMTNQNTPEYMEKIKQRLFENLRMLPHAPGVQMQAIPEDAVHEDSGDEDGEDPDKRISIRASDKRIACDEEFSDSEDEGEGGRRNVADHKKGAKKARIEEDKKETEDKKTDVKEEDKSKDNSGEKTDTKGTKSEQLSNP
T2 sequence (Q13547 whole entry): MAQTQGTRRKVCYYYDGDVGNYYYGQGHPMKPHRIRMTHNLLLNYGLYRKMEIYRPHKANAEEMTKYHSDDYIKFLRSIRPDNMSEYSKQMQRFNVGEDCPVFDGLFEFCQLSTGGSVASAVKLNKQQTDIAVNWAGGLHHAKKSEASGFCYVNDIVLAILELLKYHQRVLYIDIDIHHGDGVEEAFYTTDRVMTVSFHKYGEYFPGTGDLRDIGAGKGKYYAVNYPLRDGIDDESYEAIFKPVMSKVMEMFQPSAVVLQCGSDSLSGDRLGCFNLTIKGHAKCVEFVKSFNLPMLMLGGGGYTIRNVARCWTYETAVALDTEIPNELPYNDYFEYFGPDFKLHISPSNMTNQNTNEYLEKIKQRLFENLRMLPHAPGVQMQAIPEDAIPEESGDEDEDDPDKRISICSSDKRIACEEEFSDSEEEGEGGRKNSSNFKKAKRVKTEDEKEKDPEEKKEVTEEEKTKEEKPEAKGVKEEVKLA
Sequence of Histone deacetylase 3 (O15379 whole entry): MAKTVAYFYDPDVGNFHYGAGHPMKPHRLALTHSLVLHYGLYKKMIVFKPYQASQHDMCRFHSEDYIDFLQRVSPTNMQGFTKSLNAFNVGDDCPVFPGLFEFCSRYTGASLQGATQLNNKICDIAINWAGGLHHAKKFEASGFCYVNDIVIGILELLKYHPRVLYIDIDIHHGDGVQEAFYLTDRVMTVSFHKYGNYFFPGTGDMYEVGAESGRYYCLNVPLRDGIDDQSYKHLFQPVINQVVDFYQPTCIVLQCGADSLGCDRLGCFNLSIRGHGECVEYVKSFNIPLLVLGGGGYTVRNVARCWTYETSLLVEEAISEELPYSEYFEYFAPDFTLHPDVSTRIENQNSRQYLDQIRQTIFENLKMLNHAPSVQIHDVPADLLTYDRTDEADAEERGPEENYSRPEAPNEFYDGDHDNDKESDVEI

- inhibition [1]: Active
- inhibition [2]: Active
- IC50 (Histone deacetylase 1 [3]): 320 nM
- IC50 (MCF7): > 2000 nM
- IC50 (A549): 930 nM
- IC50 (HCT-116): > 2000 nM
- IC50 (HepG2): 290 nM
- IC50 (K562): 120 nM
- inhibition [4]: Active
- inhibition [5]: Active
- IC50 (Histone deacetylase 2 [6]): 42000 nM
- IC50 (Histone deacetylase 3): 15000 nM
- IC50 [7]: 11000 nM
- IC50 (Histone deacetylase 8): 690 nM
- inhibition (Histone deacetylase 1 [8]): Active
- inhibition (Histone deacetylase 2 [9]): Active
Compound: CN1c2ccc(F)cc2C(=O)N2CCc3c([nH]c4ccc(OCc5ccc(/C=C/C(=O)Nc6ccccc6N)cc5)cc34)C21 (configuration not stated)
- IC50 (HEL): 240 nM
